In USRE47302E1 (ONYX THERAPEUTICS INC., priority 2013, dated 2019) one finds solubility and IC50 data, which are given here for six compounds.

A short description of one series: Solubility pH 7. The following applies: pH 7, aqueous buffer.
Series [1] has as its target T1, proteasome subunit β5 (beta5) (Homo sapiens, UniProt P28074).
T1 construct: Lysate from the human acute lymphoblastic leukemia cell line, MOLT-4; endogenous in cells; host or cells: MOLT-4
The series can be described thus: Proteasome active-site ELISA (ProCISE), beta5, MOLT-4 lysate. It is filed as biochemical. The following applies: MOLT4 lysate, human, 1 h continuous treatment, 25° C. The protocol: (§1) Test compounds were serially diluted in DMSO at 100× concentration, then diluted to 10× in aqueous hypotonic lysis buffer. Lysate from the human acute lymphoblastic leukemia cell line, MOLT-4, was treated for 1 hour at 25° C. with compound at a final 1× concentration. […] Following, lysate was denatured in guanidine hydrochloride, and subunits bound to probe were isolated with streptavidin-conjugated sepharose beads. Individual subunits (e.g., β5, LMP7, LMP2, MECL-1) were probed with subunit-specific primary antibodies, followed by HRP-conjugated secondary antibodies. A chemiluminescent substrate was used to generate signal associated with HRP binding, which was detected on a plate reader. Luminescent signal was normalized to protein content, then, percent activity calculated relative to DMSO-treated controls to generate IC50 curves.
A general note: In an ELISA, binding on a coated surface is turned into a signal by an enzyme label.

For series [2], the target named is T2, immunoproteasome subunit LMP7 (Homo sapiens, UniProt P28062).
T2 construct: Lysate from the human acute lymphoblastic leukemia cell line, MOLT-4; endogenous in cells; host or cells: MOLT-4
Nature of the series: Proteasome active-site ELISA (ProCISE), LMP7, MOLT-4 lysate. It is filed as biochemical. The following applies: MOLT4 lysate, 1 h continuous treatment, 25° C. As to the method: as §1

Structures are written as SMILES. Converted amounts (≈) assume the structure as drawn.

A word on the solubility: it is how much of the substance goes into solution per volume. Low readings indicate a poorly soluble substance, high ones a readily soluble substance. By IC50 is commonly meant the concentration at which inhibition is half-maximal. Low values mean greater potency in that assay, high ones weaker potency in that assay. Compound `COc1ccc(C[C@H](NC(=O)[C@H](C)NC(=O)CN2CCOCC2)C(=O)N[C@@H](CC2=CCCC2)C(=O)[C@@]2(C)CO2)cc1O` [Compound C-1085, (S)-N-((S)-3-(cyclopent-1-en-1-yl)-1-((R)-2-methyloxiran-2-yl)-1-oxopropan-2-yl)-3-(3-hydroxy-4-methoxyphenyl)-2-((S)-2-(2-morpholinoacetamido)propanamido)propanamide] showed a solubility in “Solubility pH 7” of 8190 µg/mL (≈ 14000 µM). For the same compound, the IC50 is 1840 nM in series [1] and 158 nM in series [2].
On to `COc1ccc(C[C@H](NC(=O)[C@@H](C)NC(=O)[C@H]2CC[C@](C)(O)CC2)C(=O)N[C@@H](CC2=CCCC2)C(=O)[C@@]2(C)CO2)cc1` [Compound C-1087, (1r,4R)-N-((R)-1-(((S)-1-(((S)-3-(Cyclopent-1-en-1-yl)-1-((R)-2-methyloxiran-2-yl)-1-oxopropan-2-yl)amino)-3-(4-methoxyphenyl)-1-oxopropan-2-yl)amino)-1-oxopropan-2-yl)-4-hydroxy-4-methylcyclohexanecarboxamide], for which the concentration in solution in the series “Solubility pH 7” (solubility) was 1130 µg/mL (≈ 1930 µM). In addition, the IC50 was found to be 1750 nM in series [1] and 59.9 nM in series [2].
In the series “Solubility pH 7”, `COc1ccc(C[C@H](NC(=O)[C@@H](C)NC(=O)[C@H]2CC[C@@](C)(O)CC2)C(=O)N[C@@H](CC2=CCCC2)C(=O)[C@@]2(C)CO2)cc1` [Compound C-1088, (1s,4S)-N-((R)-1-(((S)-1-(((S)-3-(cyclopent-1-en-1-yl)-1-((R)-2-methyloxiran-2-yl)-1-oxopropan-2-yl)amino)-3-(4-methoxyphenyl)-1-oxopropan-2-yl)amino)-1-oxopropan-2-yl)-4-hydroxy-4-methylcyclohexanecarboxamide] came in with a solubility of 1410 µg/mL (≈ 2420 µM). The IC50 in series [1] came out at 2250 nM; in series [2], 132 nM.
The corresponding values for `COc1ccc(C[C@H](NC(=O)[C@@H](C)NC(=O)[C@H]2CC[C@H](O)CC2)C(=O)N[C@@H](CC2=CCCCC2)C(=O)[C@@]2(C)CO2)cc1` [Compound C-1089, (1r,4R)-N-((R)-1-(((S)-1-(((S)-3-(cyclohex-1-en-1-yl)-1-((R)-2-methyloxiran-2-yl)-1-oxopropan-2-yl)amino)-3-(4-methoxyphenyl)-1-oxopropan-2-yl)amino)-1-oxopropan-2-yl)-4-hydroxycyclohexanecarboxamide] are 985 µg/mL (≈ 1690 µM), 8970 nM and 57.6 nM.
The compound `COc1ccc(C[C@H](NC(=O)[C@@H](C)NC(=O)[C@H]2CC[C@H](O)CC2)C(=O)N[C@@H](CC2CCC2)C(=O)[C@@]2(C)CO2)cc1` [Compound C-1090, (1r,4R)-N-((R)-1-(((S)-1-(((S)-3-cyclobutyl-1-((R)-2-methyloxiran-2-yl)-1-oxopropan-2-yl)amino)-3-(4-methoxyphenyl)-1-oxopropan-2-yl)amino)-1-oxopropan-2-yl)-4-hydroxycyclohexanecarboxamide] came in with a solubility in the series “Solubility pH 7” of 979 µg/mL (≈ 1760 µM). The IC50 was determined as 6630 nM in series [1] and 262 nM in series [2].
Consider `COc1ccc(C[C@H](NC(=O)[C@@H](CO)NC(=O)[C@H]2CC[C@H](O)CC2)C(=O)N[C@@H](CC2=CCCC2)C(=O)[C@@]2(C)CO2)cc1` [Compound C-1092, (1r,4R)-N-((R)-1-(((S)-1-(((S)-3-(cyclopent-1-en-1-yl)-1-((R)-2-methyloxiran-2-yl)-1-oxopropan-2-yl)amino)-3-(4-methoxyphenyl)-1-oxopropan-2-yl)amino)-3-hydroxy-1-oxopropan-2-yl)-4-hydroxycyclohexanecarboxamide], for which the concentration in solution in the series “Solubility pH 7” (solubility) was 3070 µg/mL (≈ 5240 µM). Besides, the IC50 in series [1] was determined as 2040 nM; in series [2], 29.3 nM.
